The numbers were not newly measured in patent US11337989B2, “Compositions and methods for inhibiting inflammation and diseases using an alginic acid-based antimicrobial compound” (Evofem, Inc., priority 2013, dated 2022), which cites them from elsewhere.

In series [1] the test system is bacteria associated with bacterial vaginosis. The following applies: in vaginal fluid; O'Hanlon et al. 2011.
The test system of series [2] is vaginal and cervical cells.
The next series has as its system HIV. The following applies: compared with D or racemic lactic acid; Purcell et al. 2012.
The conditions of series [3]: at an acidic pH.

`CC(O)C(=O)O` (stereo not shown) [lactic acid]: the “suppression of bacteria associated with bacterial vaginosis” value in series [1] is on record as “suppressed”.
nonoxynol-9 [N-9]: the “toxicity to vaginal and cervical cells” value in series [2] is “toxic”.
In the case of `C[C@H](O)C(=O)O` [L form of lactic acid, L-(+)-lactic acid], the “potency in inactivating HIV” value with HIV was “more potent”.
As to `C[C@H](Cn1cnc2c(N)ncnc21)OCP(=O)(O)O` [Tenofovir, 1-(6-aminopurin-9-yl)propan-2-yloxymethylphosphonic acid], the water solubility entry in series [3] was “not water soluble”.
